Columns and labels:
[1] = Bleaching of tomato stains on cotton swatches (Example 1); conditions: detergent wash solution 2 g/l, 1 hour at 30° C
Procedure: The potential of the enhancer, Ethanedioic acid, 2-[(4-aminophenyl)sulfonyl)hydrazide-2-phenylhydrazide, to boost the bleach performance of phenol oxidizing enzyme was assessed by washing cotton swatches soiled with tomato stains
Purified phenol oxidizing enzyme from Acremonium murorum was added to the wash solution at 100 mg/l. The enzyme from Acremonium murorum is described in WO-A-00/05349 (Unilever). The enhancer was dosed at 250 μM. The following formulation was used as wash solution (2 g/l): […]
The swatches were washed during 1 hour at 30° C. After the wash, the swatches were tumble-dried and the reflectance spectra were measured using a Minolta spectrometer. The color differences between the swatch before and after the wash data were expressed in the CIELAB L*a*b* color space. In this color space, L* indicates lightness and a* and b* are the chromaticity coordinates. Color differences between two swatches are expressed as ΔE, which is calculated from the following equation:
ΔE={square root over (ΔL^2+Δa^2+Δb^2+L )}
Table 1: Stain bleach performance of the phenol oxidizing enzyme/enhancer system on tomato stains in the presence of different enhancers.

[2] = Bleaching of tomato stains on cotton swatches (Example 2); conditions: enhancer 250 μM + enzyme 20 mg/l; detergent formulation pH 9; 30 minutes at 30 C
Procedure: Stain bleach experiments were performed as in Example 1, except that 20 mg/l enzymes was used. The detergent formulation was set at pH 9, and the swatches washed during 30 minutes at 30 C.
Table 2: Stain bleach performance of the phenol oxidizing enzyme/enhancer system on tomato stains in the presence of the enzymatic bleach system.

Nc1ccc(S(=O)(=O)NNC(=O)C(=O)NNc2ccccc2)cc1 [enhancer, Ethanedioic acid, 2-[(4-aminophenyl)sulfonyl)hydrazide-2-phenylhydrazide]
ΔE (CIELAB colour difference of swatch before and after wash), wash with enzyme and enhancer added ([1]; enhancer 250 μM + phenol oxidizing enzyme from Acremonium murorum 100 mg/l): ΔE = 11.9 | ΔE (CIELAB colour difference of swatch before and after wash), wash with enhancer only ([1]; enhancer 250 μM, no enzyme): ΔE = 9.1 | ΔE (CIELAB colour difference of swatch before and after wash), wash with enzyme and enhancer added [2]: ΔE = 10.6
